Read-outs that look alike come from different tables or passages of the source.
Experiment: Pharmacokinetics in rat plasma after oral administration of SF-CS and SP-CS extracts (HPLC-MS/MS)
Type: in vivo, Male Sprague-Dawley rats
Conditions: for Tmax / AUC(0-inf) / Cmax / AUC(0-t) / MRT last: male, Sprague-Dawley; for Tmax / AUC(0-inf) / Cmax / AUC(0-t) / MRT last / T1/2ka / T1/2α / Shape of plasma concentration-time profile / AUC(0–24h): rat plasma; for AUC(0-t): read-out: AUC0–24h; for MRT last: read-out: MRT0–24h; for Shape of plasma concentration-time profile: oral SF-CS and SP-CS extracts
Procedure: All components were measured on an Agilent 1200 HPLC system (Agilent Corporation, Santa Clara, CA, USA) and API 3200 triple quadrupole mass spectrometer (Concord, ON, Canada) in negative ion mode. Acetonitrile (A) and 0.1% formic acid-water (B) were used to separate the analytes on an Agilent Eclipse plus C18 column (4.6 mm × 100 mm, 1.8 μm) with a flow rate of 0.5 mL·min^−1. […] The equilibration time (10 min) of the sequence was added before the next injection. The column temperature was 30 °C. The optimized main parameters, namely curtain gas, collision gas, ion Spray voltage, and temperature, were set at 30 psi, 8 psi, −4000 V, and 600 °C, respectively.
The plasma sample (100 μL), IS (10 μL) and formic acid (10 μL) were mixed and vortexed for 1 min. Then, 1 mL of ethyl acetate was spiked into the mixed solution and centrifuged for 10 min at 14,000 rpm. The supernatant was transferred and evaporated with nitrogen gas. These residues were re-dissolved with 100 μL methanol. The final solutions were vortexed for 2 min and centrifuged for 10 min. The supernatant was injected into the HPLC-MS/MS and analyzed.
The pharmacokinetic study was conducted in accordance with the Guidelines for the Care and Use of Laboratory Animals by USA National Institutes of Health and approved by the Animal Ethics Committee of Tianjin University of Traditional Chinese Medicine (the permit number: TCM-LAEC2019023, Tianjin, China). Male Sprague-Dawley rats (200–240 g) were fed in the animal laboratory of Tianjin University of Traditional Chinese Medicine under the standard conditions. These rats were fed and given water for 1 week before experimentation. […] In order to investigate the influence of processing on the metabolic process of active ingredients in vivo, the same amount of raw CS was processed and administrated. Depending on the clinical dosage that was applied to the human body, the dosage of SF-CS extracts was 1.9 g kg^−1 (an equivalent dosage of 12.75 g kg^−1 raw CS) for oral administration, while extraction of SP-CS was 2.2 g kg^−1 (an equivalent dosage of 12.50 g kg^−1 raw CS). In order to investigate the influence of salt on the metabolic process of active ingredients in vivo, the dosage of SF-CS extracts was 1.9 g kg^−1 (an equivalent dosage of 12.75 g kg^−1 raw CS) and SF-CS extracts with salt ( 0.26 g kg^−1 ) were used to perform the pharmacokinetic study. […] The collected plasma was centrifuged for 10 min at 6000 rpm and stored at −20 °C before analysis.
All of the pharmacokinetic parameters were estimated with the DAS1.0 system (Medical College of Wannan, China). The maximum concentration of oral administration of CS (Cmax) and the time to reach Cmax (Tmax) were achieved from the concentration–time profile. All values were shown as mean ± standard deviation. Independent t-test was used to compare the pharmacokinetic parameters of the two processed CS.

[1] = oral SF-CS extract (A) 1.9 g kg^-1, n = 10
[2] = oral SF-CS extract (A) 1.9 g kg^-1, n = 10, mean ± SD
[3] = oral SP-CS extract (B) 2.2 g kg^-1, n = 10
[4] = oral SP-CS extract (B) 2.2 g kg^-1, n = 10, mean ± SD

| SMILES | Tmax [1] [h] | AUC(0-inf) [2] [ng·h/mL] | Cmax [2] [ng/mL] | AUC(0-t) [2] [ng·h/mL] | MRT last [2] [h] | Tmax [3] [h] | AUC(0-inf) [4] [ng·h/mL] | Cmax [4] [ng/mL] | AUC(0-t) [4] [ng·h/mL] | MRT last [4] [h] | T1/2ka [2] [h] | T1/2α [2] [h] | T1/2ka [4] [h] | T1/2α [4] [h] | Shape of plasma concentration-time profile | Detection in rat plasma (after oral administration of the two processed products of CS, LLOQ 2 ng·mL^−1) | AUC(0–24h) (oral SF-CS extract) [ng·h/mL] | AUC(0–24h) (oral SP-CS extract) [ng·h/mL] |
| --- | --- | --- | --- | --- | --- | --- | --- | --- | --- | --- | --- | --- | --- | --- | --- | --- | --- | --- |
| O=c1c(O[C@@H]2O[C@H](CO)[C@H](O)[C@H](O)[C@H]2O)c(-c2ccc(O)c(O)c2)oc2cc(O)cc(O)c12 [Hyperin, hyperin] | 0.74 | 331 ± 80 | 21.3 ± 6.98 | 172 ± 38 | 9.19 ± 1.5 | 0.11 | 185 ± 153 | 36.6 ± 21.9 | 63 ± 27.8 | 8.66 ± 2.37 | 2.15 ± 4.21 | 11.7 ± 6.73 | 0.01 ± 0.01 | 0.46 ± 0.30 |  |  |  |  |
| O=C(/C=C/c1ccc(O)c(O)c1)O[C@@H]1C[C@@](O)(C(=O)O)C[C@@H](O)[C@@H]1O [Neochlorogenic acid, neochlorogenic acid] | 3.75 | 567 ± 376 | 88.6 ± 39.6 | 548 ± 384 | 5.57 ± 1.74 | 0.26 | 178 ± 22 | 31.8 ± 17.3 | 129 ± 38 | 8.18 ± 1.66 | 1.12 ± 1.66 | 7.72 ± 7.50 | 0.02 ± 0.02 | 3.35 ± 4.31 | double-peak phenomenon |  |  |  |
| O=c1c(O[C@@H]2O[C@H](CO)[C@@H](O)[C@H](O)[C@H]2O)c(-c2ccc(O)c(O)c2)oc2cc(O)cc(O)c12 [Isoquercitrin, isoquercitrin] |  |  |  |  |  |  |  |  |  |  |  |  |  |  |  | could not be tested |  |  |
| O=C(/C=C/c1ccc(O)c(O)c1)O[C@@H]1C[C@](O)(C(=O)O)C[C@@H](O)[C@H]1O [Chlorogenic acid, chlorogenic acid] | 3.84 | 1670 ± 931 | 257 ± 53 | 1660 ± 931 | 4.81 ± 0.35 | 0.28 | 438 ± 289 | 175 ± 168 | 417 ± 281 | 5.06 ± 1.1 | 0.63 ± 0.87 | 6.53 ± 5.20 | 0.02 ± 0.01 | 0.84 ± 0.42 | double-peak phenomenon |  |  |  |
| O=C(O)/C=C/c1ccc(O)cc1 [P-coumaric acid, p-coumaric acid] | 0.54 | 3290 ± 591 | 1210 ± 310 | 3200 ± 635 | 4.24 ± 1.45 | 0.33 | 2800 ± 951 | 805 ± 307 | 2570 ± 792 | 5.68 ± 1.69 | 0.15 ± 0.12 | 1.32 ± 0.86 | 0.05 ± 0.04 | 1.40 ± 0.95 |  |  | 3200 ± 635 | 2570 ± 792 |
| O=c1c(O[C@@H]2O[C@H](CO)[C@@H](O)[C@H](O)[C@H]2O)c(-c2ccc(O)cc2)oc2cc(O)cc(O)c12 [Astragalin, astragalin] | 0.99 | 11.2 ± 10.8 | 0.65 ± 0.39 | 1.27 ± 0.76 | 2.3 ± 0.98 | 0.17 | 2.33 ± 0.72 | 1.43 ± 0.21 | 1.31 ± 0.27 | 2.13 ± 0.2 | 2.27 ± 5.13 | 24.6 ± 33.2 | 0.04 ± 0.00 | 0.10 ± 0.04 |  |  | 1.27 ± 0.76 | 1.31 ± 0.27 |

From article PMC6651454, “An Established HPLC-MS/MS Method for Evaluation of the Influence of Salt Processing on Pharmacokinetics of Six Compounds in Cuscutae Semen” (Molecules, 2019)
